Measured values taken from US9682995B2, “Amino-substituted isothiazoles” (BAYER PHARMA AKTIENGESELLSCHAFT, priority 2013, dated 2017).

Legend:
Type in all cases: cell-based
B16F10 = test: Proliferation assay (crystal violet), B16F10; conditions: Mus musculus, B16-F10, 96 h; B16F10, 4 days; read-out: Inhibition of proliferation IC50 B16F10
Protocol: (§1) Cultivated tumor cells (cells were ordered from ATCC, except HeLa-MaTu and HeLa-MaTu-ADR, which were ordered from EPO-GmbH, Berlin) were plated at a density of 1000 to 5000 cells/well, depending on the growth rate of the respective cell line, in a 96-well multititer plate in 200 μL of their respective growth medium supplemented 10% fetal calf serum. After 24 hours, the cells of one plate (zero-point plate) were stained with crystal violet (see below), while the medium of the other plates was replaced by fresh culture medium (200 μl), to which the test substances were added in various concentrations (0 μM, as well as in the range of 0.001-10 μM; the final concentration of the solvent dimethyl sulfoxide was 0.5%). The cells were incubated for 4 days in the presence of test substances. Cell proliferation was determined by staining the cells with crystal violet: the cells were fixed by adding 20 μl/measuring point of an 11% glutaric aldehyde solution for 15 minutes at room temperature. After three washing cycles of the fixed cells with water, the plates were dried at room temperature. The cells were stained by adding 100 μl/measuring point of a 0.1% crystal violet solution (pH 3.0). After three washing cycles of the stained cells with water, the plates were dried at room temperature. The dye was dissolved by adding 100 μl/measuring point of a 10% acetic acid solution. Absorption was determined by photometry at a wavelength of 595 nm. The change of cell number, in percent, was calculated by normalization of the measured values to the absorption values of the zero-point plate (=0%) and the absorption of the untreated (0 μm) cells (=100%). The IC50 values were determined by means of a 4 parameter fit.

DU145 = test: Proliferation assay (crystal violet), DU145; conditions: Homo sapiens, DU-145, 96 h; DU145, 4 days; read-out: Inhibition of proliferation IC50 DU145
Protocol: as §1

Caco2 = test: Proliferation assay (crystal violet), Caco2; conditions: Homo sapiens, Caco-2, 96 h; Caco2, 4 days; read-out: Inhibition of proliferation IC50 Caco2
Protocol: as §1

NCI-H460 = test: Proliferation assay (crystal violet), NCI-H460; conditions: Homo sapiens, 96 h; NCI-H460, 4 days; read-out: Inhibition of proliferation IC50 NCI-H460
Protocol: as §1

HeLa = test: Proliferation assay (crystal violet), HeLa; conditions: Homo sapiens, 96 h, 4 days, read-out: Inhibition of proliferation IC50 HeLa
How it was run: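 Tumour cells seeded at 1000–5000 cells/well in medium with 10% FCS, dosed after 24 h at 0.001–10 μM (0.5% DMSO final) for 4 days. Cell number read by crystal-violet staining after glutaraldehyde fixation (A595), normalised to zero-point plate (0%) and untreated cells (100%); IC50 from 4-parameter fit.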

HeLa-MaTu-ADR = test: Proliferation assay (crystal violet), HeLa-MaTu-ADR; conditions: 96 h, 4 days, read-out: Inhibition of proliferation IC50 HeLa-MaTu-ADR
Protocol: as §1

[1] = tested on: spindle assembly checkpoint; test: SAC-Formation - Nocodazole-Induced Assay; conditions: Homo sapiens; HeLa cells, nocodazole 0.1 μg/ml, 24 h, phosphorylated histone H3 on serine 10
How it was run: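 HeLa cells were given nocodazole at 0.1 μg/ml final together with compounds (0.005–20 μM, 0.5% DMSO) for 24 h at 37° C. Mitotic cells were counted by phospho-histone H3 Ser10 immunostaining, with cell number from HOECHST 33342, by high-content imaging. The loss of mitotic cells was fitted with a four-parameter Hill equation.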

Row | Compound | IC50 (B16F10) [nM] | IC50 (DU145) [nM] | IC50 (Caco2) [nM] | IC50 (NCI-H460) [nM] | IC50 (HeLa) [nM] | IC50 (HeLa-MaTu-ADR) [nM] | IC50 [1] [nM]
1 | CCc1ccccc1NC(=O)c1c(C)nsc1Nc1cnc2cccc(C)c2n1 [Example 33, N-(2-Ethylphenyl)-3-methyl-5-[(8-methylquinoxalin-2-yl)amino]-1,2-thiazole-4-carboxamide] | 1400 | 1300 | 740 | 1200 | 2200 | 850 | 200
2 | CCc1ccccc1NC(=O)c1c(C)nsc1Nc1nc(C)nc2ccccc12 [Example 35, N-(2-Ethylphenyl)-3-methyl-5-[(2-methylquinazolin-4-yl)amino]-1,2-thiazole-4-carboxamide] | 1700 | 2400 | 1600 | 1600 | 1200 | 610 | 260
3 | Cc1nsc(Nc2cnc3ccccc3n2)c1C(=O)Nc1ccc(Cl)c(F)c1 [Example 40, N-(4-Chloro-3-fluorophenyl)-3-methyl-5-(quinoxalin-2-ylamino)-1,2-thiazole-4-carboxamide] | 440 | 590 | 470 | 290 | 560 | 330 | 45
4 | CCc1ccccc1NC(=O)c1c(C)nsc1Nc1cnc2ccc(Cl)cc2n1 [Example 41, 5-[(7-Chloroquinoxalin-2-yl)amino]-N-(2-ethylphenyl)-3-methyl-1,2-thiazole-4-carboxamide] | 680 | 750 | 170 | 350 | 1300 | 640 | 160
5 | COc1ccc(NC(=O)c2c(C)nsc2Nc2cnc3c(F)c(F)ccc3n2)cn1 [Example 43, 5-[(5,6-Difluoroquinoxalin-2-yl)amino]-N-(6-methoxypyridin-3-yl)-3-methyl-1,2-thiazole-4-carboxamide] | 230 | 420 | 380 | 130 | 420 | 260 | 34
6 | COc1ccc(NC(=O)c2c(C)nsc2Nc2cnc3cc(C(F)(F)F)ccc3n2)cn1 [Example 45, N-(6-Methoxypyridin-3-yl)-3-methyl-5-{[6-(trifluoromethyl)quinoxalin-2-yl]amino}-1,2-thiazole-4-carboxamide] | 190 | 460 | 380 | 100 | 340 | 300 | 54
7 | Cc1nsc(Nc2cnc3cc(F)ccc3n2)c1C(=O)Nc1ccc(F)c(F)c1 [Example 46, N-(3,4-Difluorophenyl)-5-[(6-fluoroquinoxalin-2-yl)amino]-3-methyl-1,2-thiazole-4-carboxamide] | 120 | 180 | 110 | 86 | 130 | 110 | 61
8 | COc1ccc(NC(=O)c2c(C)nsc2Nc2nc3c(C(F)(F)F)cccc3s2)cc1F [Example 47, N-(3-Fluoro-4-methoxyphenyl)-3-methyl-5-{[4-(trifluoromethyl)-1,3-benzothiazol-2-yl]amino}-1,2-thiazole-4-carboxamide] | 110 | 49 | 360 | 180 | 370 | 83 | 92
9 | COc1ccc(NC(=O)c2c(C)nsc2Nc2nc3c(C(F)(F)F)cccc3s2)cn1 [Example 48, N-(6-Methoxypyridin-3-yl)-3-methyl-5-{[4-(trifluoromethyl)-1,3-benzothiazol-2-yl]-amino}-1,2-thiazole-4-carboxamide] | 430 | 600 | 430 | 210 | 580 | 350 | 130
10 | Cc1nsc(Nc2cnc3ccccc3n2)c1C(=O)Nc1ccc(F)c(F)c1 [Example 50, N-(3,4-Difluorophenyl)-3-methyl-5-(quinoxalin-2-ylamino)-1,2-thiazole-4-carboxamide] | 300 | 410 | 270 | 520 | 450 | 210 | 56
11 | Cc1nsc(Nc2nc3c(C(F)(F)F)cccc3s2)c1C(=O)Nc1ccc(F)c(F)c1 [Example 51, N-(3,4-Difluorophenyl)-3-methyl-5-{[4-(trifluoromethyl)-1,3-benzothiazol-2-yl]-amino}-1,2-thiazole-4-carboxamide] | 470 | 160 | 69 | 280 | 570 | 370 | 39
12 | Cc1nsc(Nc2ccc(C#N)cn2)c1C(=O)Nc1ccc(Cl)c(F)c1 [Example 52, N-(4-Chloro-3-fluorophenyl)-5-[(5-cyanopyridin-2-yl)amino]-3-methyl-1,2-thiazole-4-carboxamide] | 230 | 310 | 190 | 130 | 240 | 130 | 34
13 | Cc1nsc(Nc2nc3c(C(F)(F)F)cccc3s2)c1C(=O)Nc1ccc(Cl)c(F)c1 [Example 53, N-(4-Chloro-3-fluorophenyl)-3-methyl-5-{[4-(trifluoromethyl)-1,3-benzothiazol-2-yl]amino}-1,2-thiazole-4-carboxamide] | 220 | 980 | 200 | 520 | 1000 | 310 | 340
14 | Cc1nsc(Nc2cc(C#N)ccn2)c1C(=O)Nc1ccc(Cl)c(F)c1 [Example 54, N-(4-Chloro-3-fluorophenyl)-5-[(4-cyanopyridin-2-yl)amino]-3-methyl-1,2-thiazole-4-carboxamide] | 860 | 1200 | 1300 | 210 | 800 | 650 | 19
15 | CCOC(=O)c1cnn2ccc(Nc3snc(C)c3C(=O)Nc3ccc(F)c(F)c3)nc12 [Example 55, Ethyl 5-({4-[(3,4-difluorophenyl)carbamoyl]-3-methyl-1,2-thiazol-5-yl}amino)-pyrazolo[1,5-a]pyrimidine-3-carboxylate] | 380 | 390 | 150 | 300 | 920 | 140 | 220
16 | Cc1nsc(Nc2cnccn2)c1C(=O)Nc1ccc(Cl)c(F)c1 [Example 56, N-(4-Chloro-3-fluorophenyl)-3-methyl-5-(pyrazin-2-ylamino)-1,2-thiazole-4-carboxamide] | 470 | 540 | 560 | 370 | 790 | 370 | 67
17 | Cc1nsc(Nc2cc(C#N)ccn2)c1C(=O)Nc1ccc(Oc2ccc(F)cc2F)nc1 [Example 114, 5-[(4-Cyanopyridin-2-yl)amino]-N-[6-(2,4-difluorophenoxy)pyridin-3-yl]-3-methyl-1,2-thiazole-4-carboxamide] | 1200 | 1300 | 980 | 520 | 1100 | 690 | 31
